Source: patent publication US12378193B2, “Anti-arrhythmicity agents” (The Regents of the University of California, priority 2014, dated 2025)

Assays:
[1] = system: zebrafish tremblor (tre) embryos; assay: Restoration of coordinated cardiac contractions in tre embryos; format: in vivo
Procedure: VDAC2 mRNA and morpholino antisense oligos (5′-[…]-3′) (Genetools) (SEQ ID NO: 9) were injected into one-cell stage embryos collected from crosses of tre^tc318 heterozygotes. Cardiac performance was analyzed by visual inspection on 1 dpf. The tre mutant embryos were identified either by observing the fibrillation phenotype at 2-3 dpf or by genotyping as previously described (Langenbacher et al., 2005).
Chemicals from a synthetic library (Castellano et al., 2007, J Am Chem Soc 129, 5843-5845; Choi et al., 2011, Development 138, 1173-1181; Cruz et al., 2011, Proc Natl Acad Sci USA 108, 6769-6774) and from Biomol International LP were screened for their ability to partially or completely restore persistent heartbeat in tre embryos. 12 embryos collected from crosses of tre^tc318 heterozygotes were raised in the presence of individual compounds at a concentration of 10 μM from 4 hpf (Choi et al., 2011). Cardiac function was analyzed by visual inspection at 1 and 2 dpf. The hearts of tre^tc318 embryos manifest a chaotic movement resembling cardiac fibrillation with intermittent contractions in rare occasion (Ebert et al., 2005; Langenbacher et al., 2005). Compounds that elicit persistent coordinated cardiac contractions were validated on large number of tre mutant embryos and NCX1h morphants (>500 embryos).

V1/V3 DKO MEFs = assay: Mitochondria Ca2+ uptake assay in VDAC1/VDAC3 double knockout MEFs; format: cell-based
Procedure: V1/V3 DKO MEFs were cultured as previously described (Roy et al., 2009a, EMBO Rep 10, 1341-1347). Efsevin-treated (15 μM for 30 min) or mock-treated MEFs were used for measurements of [Ca^2+]c in suspensions of permeabilized cells or imaging of [Ca^2+]m simultaneously with [Ca^2+]c in intact single cells. Permeabilization of the plasma membrane was performed by digitonin ([…]). Changes in [Ca^2+] in the cytoplasmic buffer upon IP3 (7.5 μM) addition in the presence or absence of ruthenium red (3 μM) was measured by fura2 in a fluorometer (Csordas et al., 2006, J Cell Biol 174, 915-921; Roy et al., 2009b, Mol Cell 33, 377-388). To avoid endoplasmic reticulum Ca^2+ uptake 2 μM thapsigargin was added before IP3. For imaging of [Ca^2+]m and [Ca^2+]c, MEFs were co-transfected with plasmids encoding polycistronic zebrafish VDAC2 with mCherry and mitochondria-targeted inverse pericam for 40 hours. Cells were sorted to enrich the transfected cells and attached to glass coverslips. In the final 10 min, of the efsevin or mock-treatment, the cells were also loaded with fura2AM (2.5μ[…]) and subsequently transferred to the microscope stage. Stimulation with 1 μM ATP was carried out in a norminally Ca^2+ free buffer. […]

[2] = system: murine ventricular cardiomyocytes; assay: Ca2+ imaging (transients, sparks, waves) in isolated cardiomyocytes; format: cell-based
Procedure: Murine ventricular cardiomyocytes were isolated as previously described (Reuter et al., 2004, J Physiol 554, 779-789). Cells were loaded with 5 μM fluo-4 AM in external solution containing: 138.2 mM NaCl, 4.6 mM KCl, 1.2 mM MgCl, 15 mM glucose, 20 mM HEPES for 1 hr and imaged in external solution supplemented with 2, 5 or 10 mM CaCl2). For the recording of Ca^2+ sparks and transients, the external solution contained 2 mM CaCl2. For Ca^2+ transients, cells were field stimulated at 0.5 Hz with a 5 ms pulse at a voltage of 20% above contraction threshold. For all measurements, efsevin was added 2 hours prior to the actual experiment. Images were recorded on a Zeiss LSM 5 Pascal confocal microscope. Data analysis was carried out using the Zeiss LSM Image Browser and ImageJ with the SparkMaster plugin (Picht et al., 2007, Am J Physiol Cell Physiol 293, C1073-1081). Cells were visually inspected prior to and after each recording. Only those recordings from healthy looking cells with distinct borders, uniform striations and no membrane blebs or granularity were included in the analysis.

[3] = paced at 0.5 Hz, % of vehicle-treated

SMILES: CCOC(=O)C1=CCN(S(=O)(=O)c2ccc(C)cc2)C1c1ccccc1 (stereo not shown) [efsevin]
- embryos with coordinated cardiac contractions ([1]; efsevin treated tre embryos): 71.2±8.8%
- embryos with coordinated contractions ([1]; efsevin treated tre embryos, VDAC1/2 knocked down simultaneously): 30.3±6.3%
- embryos with coordinated contractions ([1]; efsevin treated tre embryos, morpholino knockdown of VDAC1 (MO^VDAC1)): 46.9±10.7%
- embryos with coordinated contractions ([1]; efsevin treated tre embryos, morpholino knockdown of VDAC2 (MO^VDAC2)): 45.3±7.4%
- restoration of rhythmic contractions in tremblor embryos ([1]; tremblor embryos): restored rhythmic contractions in the majority of tremblor embryos
- transfer of Ca2+ released from intracellular stores into mitochondria (V1/V3 DKO MEFs; intact V1/V3 DKO MEFs, stimulation with ATP): accelerated the transfer of Ca^2+
- Ca2+ transferred into mitochondria during IP3-induced Ca2+ release (V1/V3 DKO MEFs; permeabilized V1/V3DKO MEFs, efsevin 15 μM for 30 min, 7.5 μM IP3): increased the amount of Ca^2+ transferred into mitochondria
- spontaneous Ca2+ waves spanning more than half of the entire cell ([2]; 1 μM efsevin): approximately half
- spontaneous Ca2+ waves spanning more than half of the entire cell ([2]; 10 μM efsevin): further reduced
- spontaneous Ca2+ waves spanning more than half of the entire cell ([2]; 25 μM efsevin): almost entirely blocked
- decay phase of the single spark ([2]; % of vehicle-treated): 82.5±2.1%
- maximum spark amplitude ([2]; % of vehicle-treated): 101.6±2.5%
- total duration of the spark ([2]; % of vehicle-treated): 85.7±2%
- total width of the spark ([2]; % of vehicle-treated): 89.5±1.4%
- Ca2+ spark frequency ([2]; efsevin compared to vehicle-treated): 101.1±7.7%
- Ca2+ transient rate of decay [2, 3]: 82.8±4%
- Ca2+ transient time to peak [2, 3]: 95±3.9%
- Ca2+ transient amplitude ([2]; paced at 0.5 Hz, efsevin-treated as % of vehicle-treated): 98.6±4.5%
- Ca2+ release flux ([2]; sparks, % of vehicle-treated): 98.7±2.8%
